Earlier results as cited in US20140234406A1, “NOVEL NANOPARTICULATE SUSPENSION FOR INCORPORATING FAT-SOLUBLE VITAMINS IN THE TREATMENT OF HAIR THINNING and HAIR LOSS” (HairRx, priority 2013, published 2014).

Settings: biological half-life; reported by Yap et al. 2001 and Schwedhelm et al. 2003

Cc1c(C)c2c(c(C)c1O)CC[C@@](C)(CCC[C@H](C)CCC[C@H](C)CCCC(C)C)O2 [alpha-tocopherol]
half-life: 73 to 81 h
